Experimental data reported in patent publication US20240166641A1, “HETEROCYCLES AND USES THEREOF” (Kumquat Biosciences Inc., priority 2021, published 2024).

Experiments:
PTP1B = molecular target: T1, PTP1B (Homo sapiens, UniProt P18031); test: Phosphatase activity assay (Bio-Biochem-DiFMUP), PTP1B; assay type: biochemical; details: DiFMUP substrate, room temperature
T1 sequence (P18031 1-435): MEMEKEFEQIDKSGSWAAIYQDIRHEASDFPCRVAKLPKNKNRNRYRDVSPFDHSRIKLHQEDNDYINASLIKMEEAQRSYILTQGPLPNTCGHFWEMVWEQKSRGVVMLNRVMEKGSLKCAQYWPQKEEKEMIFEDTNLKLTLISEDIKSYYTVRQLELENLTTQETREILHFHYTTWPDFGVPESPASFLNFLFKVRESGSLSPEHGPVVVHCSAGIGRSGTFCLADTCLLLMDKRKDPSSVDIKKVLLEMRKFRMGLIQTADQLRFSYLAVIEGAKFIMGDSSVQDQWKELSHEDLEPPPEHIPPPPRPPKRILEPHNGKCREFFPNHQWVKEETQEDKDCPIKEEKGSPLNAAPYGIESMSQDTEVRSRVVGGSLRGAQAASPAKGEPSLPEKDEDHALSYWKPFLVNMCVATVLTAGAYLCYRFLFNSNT
Excerpt: (§1) The selectivity and potency of a small molecule PTPN2 inhibitor as provided herein (e.g., a derivative of Formula I, II, III, IV; or sub-formulae thereof) against one or more protein tyrosine phosphatase (PTP) enzymes, and specifically against PTPN2, can be assessed in various ways. The one or more PTP enzymes comprise Mycobacterium protein tyrosine phosphatase A (mPTPA), Mycobacterium protein tyrosine phosphatase B (mPTPB), PTPN1 (i.e., PTP1B), PTPN2 (i.e., TC-PTP), SHP-1, SHP-2, FAP-1, Meg2, HePTP, Laforin, VHX, VHR, LMWPTP, Cdcl4A, LAR, CD45, PTPRG, a fragment thereof, a variant thereof, and a combination thereof. Selectivity and potency of a small molecule PTPN2 inhibitor is evaluated using a PTP activity inhibition assay. The assay is performed using a buffer comprising 50 millimolar (mM) Bis-Tris (pH=6.3), 2 mM EDTA, and 5 mM N,N′-dimethyl-N,N′-bis(mercaptoacetyl)hydrazine (DMH). The assay is performed using a phosphated substrate, e.g., 10 mM fluorescein diphosphate (FDP) that is stored at −20° C. Alternatively or in addition to, the assay is performed using 10 mM DiFMUP as a phosphated substrate. Each PTP enzyme is diluted in an enzyme dilution buffer comprising 50 mM Bis-Tris (pH=6.3), 2 mM EDTA, 5 mM DMH, 20% (vol./vol.) glycerol, and 0.01% (vol./vol.) Triton X-100.
(§2) The assay is carried out at room temperature in 96 well plates. A reaction mixture of 170 microliter (μL) of the assay buffer comprising 10 μM FDP or DiFMIUP is added to each well. A 10 μL volume of (i) a compound disclosed herein (e.g., PTPN2 inhibitor) dissolved in DMSO at one of 10 concentrations from a serial dilution or (ii) DMSO alone for control is added to each well. The reaction is initiated by adding 20 μL of a PTP enzyme (e.g., PTPN2) that is diluted in the enzyme dilution buffer. The phosphatase activity of the PTP enzyme is assessed by monitoring appearance of a fluorescent product (e.g., fluorescein monophosphate (FMP) from FDP, or 6,8-difluoro-7-hydroxyl-4-coumarin (DiFMU) from DiFMUP) continuously for about 15 to 30 minutes, using the SpectraMax® Gemini™ XPS Microplate Spectrofluorometer (Molecular Devices®) with excitation of 440 nm and emission at 530 nm (cutoff filter at 525 nm) for FMP and excitation at 360 nm and emission at 450 nm (cutoff filter at 435 nm) for DiFMU. The rate (e.g., the initial rate) of FMP or DiFMU formation is plotted against the concentration of the small molecule PTPN2 inhibitor, and the data is fitted (e.g., using a 4-parameter equation) to determine the inflection point of the fit as the IC50 of the small molecule PTPN2 inhibitor for a specific enzyme. Table 6 summarizes the IC50 values of compounds disclosed herein against PTPN2 and PTPN1.

PTPN2 = molecular target: T2, PTPN2 (Homo sapiens, UniProt P17706); test: Phosphatase activity assay (Bio-Biochem-DiFMUP), PTPN2; assay type: biochemical; details: DiFMUP substrate, room temperature
T2 sequence (P17706 1-415): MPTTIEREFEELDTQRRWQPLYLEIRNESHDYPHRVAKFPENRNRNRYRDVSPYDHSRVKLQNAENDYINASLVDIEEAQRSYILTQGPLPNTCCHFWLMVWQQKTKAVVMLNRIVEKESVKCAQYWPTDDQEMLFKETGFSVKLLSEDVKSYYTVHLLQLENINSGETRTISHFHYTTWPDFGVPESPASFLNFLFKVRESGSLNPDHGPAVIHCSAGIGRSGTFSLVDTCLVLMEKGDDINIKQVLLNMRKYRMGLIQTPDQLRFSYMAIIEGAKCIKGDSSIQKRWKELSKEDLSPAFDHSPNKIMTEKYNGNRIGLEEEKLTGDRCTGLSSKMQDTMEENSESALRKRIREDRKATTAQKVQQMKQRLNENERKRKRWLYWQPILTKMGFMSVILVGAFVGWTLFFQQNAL
Excerpt: as §1, §2

mouse C57BL/6 T cells = test: pSTAT1 signaling in IFNα-stimulated T cells, flow cytometry; assay type: cell-based; details: T-cell, 10 uM compound, T cells stimulated for 5 hours by IFNα, read-out: % pSTAT1 in cells treated with subject compounds relative to negative control (DMSO)
Protocol: IFNα signaling in mouse C57BL/6 T cells promotes activation of multiple signaling pathways associated with antitumor responses. A key target of this signaling is phosphorylation of the transcription factor STAT1. […] T cells are stimulated for 5 hours by IFNα in the presence or absence of exemplified compounds disclosed herein (e.g., PTPN2 inhibitors) and stained intracellularly with antibodies for phosphorylated STAT1 and then analyzed by flow cytometry. Enhancement of phosphorylation of STAT1 is read out as a percentage over the DMSO control.

[1] = test system: B16F10 mouse melanoma cells; test: MHC expression associated with IFNγ signaling, flow cytometry; assay type: cell-based; details: B16-F10, 3 uM compound, 48 hours, normalized to DMSO/with IFNγ control, read-out: % MHC in cells treated with Compound at 3 uM relative to negative control (DMSO)
Protocol: B16F10 mouse melanoma cells (ATCC Cat #CRL-6475, Manassas, VA) are seeded at approximately a density of 500 cells per well in a 384-well clear bottom plate (Corning Cat #3765, Corning, 5 NY) in 25 μL total volume of DMEM+10% FBS (Sigma Cat #D6429 and Sigma Cat #F4135, St. Louis, MO). Cells are allowed to adhere overnight at 37° C.+5% CO2. On the following day, 12.5 μL of mouse IFNγ (RD systems Cat #485-MI/CF, Minneapolis, MN) is added to half of the plate (columns 13-24) at a concentration of 2 ng/mL for a final assay concentration of 0.5 ng/mL of IFNγ. Media only (12.5 μL of DMEM+10% FBS) is added to the remainder of the 10 plate (columns 1-12). Next, compounds resuspended in DMSO (Sigma Cat #D2650) at 100 mM are diluted in semi-log dilutions in DMSO ranging from 100 mM to 0.001 mM and DMSO only controls are included. The compound/DMSO dilutions are further diluted 1:250 in DMEM+10% FBS, and 12.5 μL of these dilutions are added in triplicates to cells of both treatment arms (with and without IFNγ). Compounds are only dosed in the inner 240 wells, avoiding the outer 2-well perimeter of the plate to minimize edge effects. Finally, the plate is loaded into an IncuCyte® S3 Live Cell Analysis System (Essen Bioscience-Sartorius, Ann Arbor, MI) maintained in a 37° C.+5% CO2 incubator, allowed to equilibrate for 2 hours, and treated for 48 hours. MHC levels are measured by flow cytometry using a FITC anti-mouse H-2kb antibody (clone AF6-88.5), and levels are normalized based on DMSO/with IFNγ control. Table 7 below summarizes the percentage in MHC expression in cells treated with or without compounds disclosed herein at a specified concentration.

OT-1 cells = test: T-cell activation: intracellular production of IFNγ and TNFα in exhausted OT-1 cells; assay type: cell-based; details: 10 uM compound, OT-1 cells restimulated with 1 μM OVA, read-out: % TNFa + /IFNg + production in compound-treated cells (uM compound) relative to negative control (DMSO)
Protocol: 1*10^6 OT-1 cells are seeded in a 24well in a volume of 1 mL of RPMI/10% FCS, and activated with 10 nM OVA protein for 48 h. Cells are then split 1:4 into 96well plates after two washes in warm media. To induce exhaustion, cells are then expanded for 3 days in the presence of vehicle control or a compound described herein (e.g., PTPN2 inhibitor) various concentrations, as well as 5 ng/ml IL-7 and 5 ng/ml IL-15, with the addition of fresh OVA on each day. After this point, cells are treated with Brefeldin A and restimulated with 1 μM of OVA for 4-6h, and cells are stained to assess production of IFNγ and TNFα intracellularly by flow cytometry. The results are shown as increase in percentage production of IFNγ and TNFα in cells treated with an exemplified compound at 10 uM, relative to a negative control (DMSO) of cells without being treated with the compound but merely DMSO (a solvent in which exemplified compounds are dissolved). See Table 10 below summarizes percentage increase in IFNγ and TNFα intracellular production in cells treated with an exemplified compound (at 10 uM) or without it, relative to a negative control (DMSO).

Structure (SMILES) | IC50 (PTP1B) [µM] | IC50 (PTPN2) [µM] | activity at 10 µM (mouse C57BL/6 T cells) [%] | activation at 3 µM [1] [%] | activity at 10 µM (OT-1 cells) [%]
CC(C)Nc1cc2c(F)c(N3CC(=O)NS3(=O)=O)c(O)cc2n(C2CC2)c1=O [Compound 133] | ≤ 1 | ≤ 1 | 170 | – | –
O=C1CN(c2c(O)cc3ccc(OCC4CCCOC4)nc3c2F)S(=O)(=O)N1 (stereo not shown) [Compound 144] | ≤ 1 | ≤ 1 | – | > 10 | 251
O=C1CN(c2c(O)cc3ccc(OCCc4ccccc4)nc3c2F)S(=O)(=O)N1 [Compound 151] | ≤ 1 | ≤ 1 | – | 1 to 10 | 227
CC(C)CCNc1cc2c(F)c(N3CC(=O)NS3(=O)=O)c(O)cc2n(C)c1=O [Compound 186] | ≤ 1 | ≤ 1 | – | > 10 | –
COC(C)(C)CCOc1ccc2cc(O)c(N3CC(=O)NS3(=O)=O)c(F)c2n1 [Compound 149] | ≤ 1 | ≤ 1 | – | > 10 | 207
CC(C)CCNc1cc2cc(N3CC(=O)NS3(=O)=O)c(O)cc2n(C)c1=O [Compound 120] | ≤ 1 | ≤ 1 | – | – | 194
CC(C)CCNc1ccc2cc(O)c(N3CC(=O)NS3(=O)=O)cc2n1 [Compound 113, 5-(6-hydroxy-2-(isopentylamino)quinolin-7-yl)-1,2,5-thiadiazolidin-3-one 1,1-dioxide] | ≤ 1 | ≤ 1 | – | – | 210
O=C1CN(c2c(O)cc3ccc(OCCC4CCCC4)nc3c2F)S(=O)(=O)N1 [Compound 158] | ≤ 1 | ≤ 1 | – | > 10 | 152
O=C1CN(c2c(O)cc3c(cc(NC4CCCC4)c(=O)n3C3CC3)c2F)S(=O)(=O)N1 [Compound 185] | ≤ 1 | ≤ 1 | 181 | – | –
O=C1CN(c2c(O)cc3ccc(OCCc4ccc(F)cc4)nc3c2F)S(=O)(=O)N1 [Compound 204, 5-(8-fluoro-2-(4-fluorophenethoxy)-6-hydroxyquinolin-7-yl)-1,2,5-thiadiazolidin-3-one 1,1-dioxide] | ≤ 1 | ≤ 1 | – | 1 to 10 | 430
N#CCCCOc1ccc2cc(O)c(N3CC(=O)NS3(=O)=O)c(F)c2n1 [Compound 155] | ≤ 1 | ≤ 1 | – | > 10 | –
CC(C)CCNC(=O)c1cc2c(F)c(N3CC(=O)NS3(=O)=O)c(O)cc2s1 [Compound 130, 5-(1,1-dioxido-4-oxo-1,2,5-thiadiazolidin-2-yl)-4-fluoro-6-hydroxy-N-isopentylbenzo[b]thiophene-2-carboxamide] | ≤ 1 | ≤ 1 | – | > 10 | –
CC(C)(C)CCOc1ccc2cc(O)c(N3CC(=O)NS3(=O)=O)cc2n1 [Compound 183] | ≤ 1 | ≤ 1 | – | < 1 | 162
CC(C)CCCc1cc2c(F)c(N3CC(=O)NS3(=O)=O)c(O)cc2n(C)c1=O [Compound 190] | ≤ 1 | ≤ 1 | – | 1 to 10 | –
O=C1CN(c2c(O)cc3ccc(OCC4CCOC4)nc3c2F)S(=O)(=O)N1 (stereo not shown) [Compound 139] | ≤ 1 | ≤ 1 | – | > 10 | 226
CC(C)(C)CCOc1ccc2cc(O)c(N3CC(=O)NS3(=O)=O)c(F)c2n1 [Compound 150] | ≤ 1 | ≤ 1 | – | – | 260
